Measurements taken from US20170000784A1, “Autophagy Inhibitors” (priority 2013, published 2017).
In brackets after ≈: the same amount, converted by molar mass.

Experiments:
[1] = tested on: PLX-4032 resistant melanoma cell lines UACC1093 and UACC647; experiment: Combination interaction tumor cell viability (ATP luminescence, 72 hours); type: cell-based
Description: (§1) Tumor cell lines (H292, HCT116, A375, HCC1569, A498, N87, UACC1093, and UACC647) were cultured in RPMI 1640 supplemented with 5% fetal bovine serum and housed in a 5% CO2 Incubator at 37° C.
(§2) For combination interaction experiments, cells were plated on a 96 well microplate and allowed 24 hours to adhere. Drugs were administered to the drug plate by the following: compound stock solutions (20 mM) or combination agent stock solutions (20 mM) were added to a drug plate where a 1:10 dilution was performed. Following the dilutions, 2 μl of each VT-062 and standard agent was transferred to the corresponding wells in the cell-containing 96-well plate with 196 μl of growth media. The compound and combination agent was concurrently tested over a range of 0.1 pM-100 μM for 72 hours. Following 72 hours of continuous exposure cell viability was determined by measuring the ATP activity using a commercially available cell viability assay kit. Luminescence intensity was used to relative drug activity compared to control wells and used to graphically determine the IC50 of combination.

[2] = tested on: Tumor cell lines (H292, HCT116, A375, HCC1569, A498, N87, UACC1093, and UACC647); experiment: Single agent tumor cell viability (ATP luminescence, 72 hours); type: cell-based; conditions: cell lines tested; 72 hours exposure; FIGS. 1A, 1B
Description: as §1
as §2, with “single agent IC50 determination,” for “combination interaction experiments,”, “(10” for “(20 mM) or combination agent stock solutions (20”, “test compound” for “each VT-062 and standard agent”, “198” for “196”, “compounds were” for “compound and combination agent was concurrently”, “IC50.” for “IC50 of combination.”

[3] = tested on: A375 Human melanoma tumor cells; experiment: Human tumor xenograft study; type: in vivo; conditions: A375 xenograft in female mice; orally, daily for 21 days; after 25 days
Description: Female mice were inoculated subcutaneously in the right flank with 0.1 ml of a 50% RPMI/50% Matrigel™ (BD Biosciences, Bedford, Mass.) mixture containing a suspension of A375 Human melanoma tumor cells (approximately 5×10^6 cells/mouse).
When tumor reached approximately 130 mg, mice were randomized into treatment groups. Body weights were recorded when the mice were randomized and were taken twice per week (on Study Days 3 and 7 for each cycle) thereafter in conjunction with tumor measurements. Treatment began on the day of randomization. Example 10 was delivered orally in a vehicle consisting of 5% DMA, 10% propylene glycol, 20% PEG 400, and 65% sterile water. Example 10 was administered daily for 21 days.

[4] = tested on: phospho-ERK1/2 and LC3-II in A375 cells; experiment: Western blot of A375 cells treated with PLX-4032 with and without autophagy inhibitors; type: cell-based, human
Description: For Western blotting, U2OS cells were seeded in 10 cm plates in 5A McCoy's with 10% FBS at 1×10^6 cells per plate. All melanoma lines were seeded in 10 cm plates in RPMI 1640 with 10% FBS at 1×10^6 cells per plate. After 24 hours, cells were treated with CQ, QN, Example 27, or Example 7 in a dose response of 0.3 μM, 1 μM, 3 μM, 10 μM, and 30 μM for three hours. A375 were treated with PLX-4032 (Selleck Chemicals, S1267) at 10 nM, 100 nM, and 1 μM for three hours with and without CQ, QN, Example 7, and Example 27 at 3 μM and 30 μM. After treatment, cells were lysed [10 mM KPO4, 1 mM EDTA, 10 mM MgCl2, 5 mM EGTA, 50 mM bis-glycerophosphate, 0.5% NP40, 0.1% Brij35, 0.1% sodium deoxycholate, 1 mM NaVO4, 5 mM NaF, 2 mM DTT, and complete protease inhibitors (Sigma, P8340-5 mL)] and 50 μg of protein was resolved by SDS-PAGE. Proteins were transferred to PVDF membranes and probed with primary antibodies [LC3 (Sigma, L7543-200UL), anti-α-tubulin (Sigma, T6199), cathepsin B (Santa Cruz, sc-13985)] for 16 hours at 4° C. followed by a secondary antibody [HRP-linked rabbit or mouse IgG (GE Healthcare, NA934 or NA931) or Odyssey IRDye 680CW Goat anti-rabbit IgG (LI-COR, 926-32221) or IRDye 800CW Goat anti-mouse IgG (LI-COR, 926-32210)] for 1 hour at room temperature. Proteins were detected with enhanced chemiluminescence or using the Odyssey machine and quantified (FIGS. 12, 15, 16, 7 and 11).
Since the melanoma cell lines are capable of undergoing autophagy and sensitive to autophagy inhibition, the inventors questioned whether autophagy inhibitors could improve the efficacy of, or sensitize melanoma cells against cytotoxic and chemotherapeutic drugs for advanced metastatic melanoma. In one example, PLX-4032 drug “vemurafenib” (marketed as ZELBORAF®) is a B-Raf enzyme inhibitor developed by Plexxikon and Genentech for the treatment of late-stage melanoma. The name “vemurafenib” comes from V600E mutated BRAF inhibition. PLX-4032, selectively targets the V600E mutant BRAF and it is unknown how this drug may affect autophagic flux. To determine the effects of the drug on autophagic flux, the present inventors performed experiments to determine whether PLX-4032 induces autophagy, as has been observed with other targeted agents. In some embodiments, the accumulation of LC3-II in response to lysosome inhibition was measured by quantitative Western blotting, as described above. A375 cells were treated with PLX-4032 (10 nM, 100 nM, and 1 μM) for three hours in the presence or absence of CQ.

[5] = tested on: UACC-1940 melanoma cell line; experiment: Cell viability (IC50) screen, CellTiter Glo, UACC-1940; type: cell-based; conditions: Homo sapiens; UACC-1940 cell viability, CellTiter Glo; read-out: IC50
Description: (§3) U2OS cells were seeded at 500 cells per well in 5A McCoy's with 10% FBS in 96-well clear bottom, black-walled tissue culture plates. All melanoma cell lines (A375, UACC-91, UACC-257, UACC-502, UACC-903, UACC-1308, UACC-1940, UACC-2534, and UACC-3291) were seeded at 5,000 cells per well in RPMI 1640 with 10% FBS in 96-well clear bottom, black-walled tissue culture plates. After 24 hour incubation, cells were treated with VATG compounds in triplicate with a 10-point half log dose response from […] for 24 and 48 hours. Medium was removed and 2× CellTiter Glo (Promega, G7571) reagent mixed 1:1 with Opti-MEM (Invitrogen, 31985062) was added at 100 μL per well and incubated at room temperature for 15 minutes while rocking. 75 μL per well was moved to a white-walled 96-well plate and luminescence quantified using the 96 LUM program on an EnVision plate reader (PerkinElmer) and exported for analysis. All triplicate data points were averaged and luminescent readings for each treatment were normalized to vehicle control for change in viability. Dose response curves were input into SigmaPlot for IC50 calculations (Systat Software Inc).

[6] = tested on: UACC-1308 melanoma cell line; experiment: Cell viability (IC50) screen, CellTiter Glo, UACC-1308; type: cell-based; conditions: Homo sapiens; UACC-1308 cell viability, CellTiter Glo; read-out: IC50
Description: as §3

[7] = tested on: UACC-257 melanoma cell line; experiment: Cell viability (IC50) screen, CellTiter Glo, UACC-257; type: cell-based; conditions: Homo sapiens; UACC-257 cell viability, CellTiter Glo; read-out: IC50
Description: as §3

[8] = tested on: UACC-91 melanoma cell line; experiment: Cell viability (IC50) screen, CellTiter Glo, UACC-91; type: cell-based; conditions: Homo sapiens; UACC-91 cell viability, CellTiter Glo; read-out: IC50
Description: as §3

A375 cells = type: cell-based, human; conditions: A375 soft agar
From the text: After three weeks of treatment, cells were fixed and stained in 1% paraformaldehyde in 1×PBS containing 0.005% crystal violet overnight. Cells were destained with multiple washes of 1×PBS to remove background staining. Plates were scanned and images quantified using Nikon NIS Elements software. To quantify, each image was sharpened and an ROI of equal size drawn around each well. Intensity thresholds were set to include all pixels equal to or greater than the intensity of the mean background fluorescence. Objects within the threshold of each ROI were quantified using an automated object count function and exported for analysis. Object number was quantified to denote total colony formation. […] Additivity was established when the expected viability determined by the Bliss independence model was equal to the actual viability. This model was chosen since the effects of both compounds are mutually non-exclusive and follow first order Michaelis-Menten kinetics.
To determine if the effects of each combination were more than, less than, or equal to additive, predictions for additivity were made using the Bliss Independence (Table 7), as disclosed in Yan H, Zhang B, Li S, Zhao Q. A formal model for analyzing drug combination effects and its application in TNF-alpha-induced NFkappaB pathway. BMC Syst. […] Drug combination studies and their synergy quantification using the Chou-Talalay method.

[9] = tested on: UACC-903 melanoma cell line; experiment: Cell viability (IC50) screen, CellTiter Glo, UACC-903; type: cell-based; conditions: Homo sapiens; UACC-903 cell viability, CellTiter Glo; read-out: IC50
Description: as §3

A375 melanoma cell line = experiment: Cell viability (IC50) screen, CellTiter Glo, A375; type: cell-based; conditions: Homo sapiens, A-375; A375 cell viability, CellTiter Glo, 48 hours; read-out: IC50
Description: as §3

[10] = tested on: UACC-502 melanoma cell line; experiment: Cell viability (IC50) screen, CellTiter Glo, UACC-502; type: cell-based; conditions: Homo sapiens; UACC-502 cell viability, CellTiter Glo; read-out: IC50
Description: as §3

[11] = tested on: UACC-3291 melanoma cell line; experiment: Cell viability (IC50) screen, CellTiter Glo, UACC-3291; type: cell-based; conditions: Homo sapiens; UACC-3291 cell viability, CellTiter Glo; read-out: IC50
Description: as §3

[12] = tested on: UACC-2534 melanoma cell line; experiment: Cell viability (IC50) screen, CellTiter Glo, UACC-2534; type: cell-based; conditions: Homo sapiens; UACC-2534 cell viability, CellTiter Glo; read-out: IC50
Description: as §3

[13] = tested on: metastatic melanoma with BRAF V600E mutation; conditions: metastatic melanoma patients with the mutation; in one study; cited from earlier work
L6 cells = experiment: In vitro cytotoxicity (LD50), Alamar Blue; type: cell-based; conditions: Rattus norvegicus, L6, read-out: L6 IC50
Description: L6 cells were seeded at 4×10^4 cells per well in a 96-well microtiter plate with each well containing 100 μL of RPMI 1640 medium, supplemented with 1% L-glutamine (200 mM), and 10% fetal bovine serum. Serial drug dilutions of Example 7 and Example 27 with seven 3-fold dilution steps, covering a range from 90 to 0.12 μg/mL, were prepared. After 72 h of incubation, the plates were inspected under an inverted microscope to ensure growth of the controls and sterile conditions. Alamar Blue (10 μL, 12.5 mg of resazurin dissolved in 100 mL of double-distilled water) was then added to each well, and the plates were incubated for another 2 hours. Plates were read with a microplate fluorometer using an excitation wavelength of 536 nm and an emission wavelength of 588 nm. Data were analyzed using microplate reader software. Podophyllotoxin was used as a standard (L6 IC50=0.04 μg/mL).
Next, the inventors wanted to determine if there is a therapeutic window for Example 7 and Example 27 in the treatment of P. falciparum. A therapeutic window for P. falciparum treatment is defined as a 10-fold differential between the in vitro cytotoxicity (LD50) within a mammalian cell line and the antimalarial IC50 (LD50/IC50) as defined by the MMV. Using the rat skeletal muscle L6 mammalian cell line, dose-response curves for Example 7 and Example 27 were performed and the LD50 determined.

For `COc1ccc2nc3cc(Cl)ccc3c(NCCCCN(C)CC3CC3)c2c1` [Example 10, N^1-(6-Chloro-2-methoxyacridin-9-yl)-N^4-(cyclopropylmethyl)-N^4-methylbutane-1,4-diamine], the “increase in tumor growth inhibition in combination than Example 10 alone” value ([1]; in combination with PLX-4032, FIGS. 4A, 4C) was 2.6-3.25%, the “increase in tumor growth inhibition in combination than Example 10 alone” value ([1]; in combination with Temozolomide, FIGS. 4B, 4D) was 7-30% and the “tumor cell growth inhibition” value [2] was “more than 75%”. The tumor growth inhibition [3] was “greater than 50%”.

For `CCCS(=O)(=O)Nc1ccc(F)c(C(=O)c2c[nH]c3ncc(-c4ccc(Cl)cc4)cc23)c1F` [PLX-4032, N-[3-[5-(4-chlorophenyl)-1H-pyrrolo[2,3-b]pyridine-3-carbonyl]-2,4-difluorophenyl]propane-1-sulfonamide, reference compound], the “phosphorylation of ERK1/2 (oncogenic BRAF signaling)” value ([4]; 10 nM, 100 nM, 1 μM for three hours) was “reduced phosphorylation”, the “autophagy / basal autophagic flux (LC3-II)” value ([4]; three hours, in the presence or absence of lysosome inhibitors) was “not significantly altered” and the IC50 [5] was 3.3 µM. It also gave an IC50 [6] of 0.6 µM, an IC50 [7] of 4 µM and an IC50 [8] of 0.6 µM. For the same molecule, the “Relative Growth Inhibition Compound B” value (A375 cells; single compound at IC10) was 0.19, the IC10 concentration (A375 cells; treated every other day for three weeks, single agent) was 0.0013 µM and the IC50 [9] was 69 µM. It also gave an IC50 (A375 melanoma cell line) of 1 µM, an IC50 [10] of 4.2 µM and an IC50 [11] of 1.5 µM. The IC50 [12] was 19.3 µM and the response rate [13] was 70%.

`COc1cc([C@@H]2c3cc4c(cc3[C@H](O)[C@H]3COC(=O)[C@H]23)OCO4)cc(OC)c1OC` [Podophyllotoxin] gave an IC50 (L6 cells) of 0.04 µg/mL (≈ 0.0965 µM).
